Legend:
Assay in all cases: relative viability (nuclei count vs DMSO), 5 days (fraction); higher = more cells survive
Bortezomib + OSI-027 = compound: CC(C)C[C@H](NC(=O)[C@H](Cc1ccccc1)NC(=O)c1cnccn1)B(O)O [Bortezomib] + COc1cccc2cc(-c3nc([C@H]4CC[C@H](C(=O)O)CC4)n4ncnc(N)c34)[nH]c12 [OSI-027] (partner 0.5 µM)
How it was run: (§1)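 Lung cancer cell lines, seeded in 1536-well plates, were treated the following day by pin tool with a single drug or with five library-drug doses (not always all listed) in √10 steps on top of a fixed anchor-drug dose. Cells were fixed and nuclei stained in one step after 5 days, and nuclei were counted. Relative viability is the nuclei count for treated wells divided by that for vehicle wells, reported as medians of duplicate plates.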

Bortezomib + Crizotinib = compound: CC(C)C[C@H](NC(=O)[C@H](Cc1ccccc1)NC(=O)c1cnccn1)B(O)O [Bortezomib] + C[C@@H](Oc1cc(-c2cnn(C3CCNCC3)c2)cnc1N)c1c(Cl)ccc(F)c1Cl [Crizotinib] (partner 1 µM)
How it was run: as §1

[1] = compound: CC1=CC(=NN1)NC2=CC(=NC(=N2)/C=C/C3=CC=CC=C3)N4CCN(CC4)C + COc1cc2c(Oc3ccc(NC(=O)C4(C(=O)Nc5ccc(F)cc5)CC4)cc3F)ccnc2cc1OCCCN1CCOCC1 [Foretinib] (partner 0.25 µM)
How it was run: as §1

Obatoclax + Pictilisib = compound: COC1=CC(c2cc3ccccc3[nH]2)=N/C1=C\c1[nH]c(C)cc1C [Obatoclax] + CS(=O)(=O)N1CCN(Cc2cc3nc(-c4cccc5[nH]ncc45)nc(N4CCOCC4)c3s2)CC1 [Pictilisib] (partner 1 µM)
How it was run: as §1

Cell Line | relative viability (Bortezomib + OSI-027; first compound 0.0002 µM) | relative viability (Bortezomib + OSI-027; first compound 0.000632 µM) | relative viability (Bortezomib + OSI-027; first compound 0.002 µM) | relative viability (Bortezomib + OSI-027; first compound 0.006325 µM) | relative viability (Bortezomib + OSI-027; first compound 0.02 µM) | relative viability (Bortezomib + Crizotinib; first compound 0.0002 µM) | relative viability (Bortezomib + Crizotinib; first compound 0.000632 µM) | relative viability (Bortezomib + Crizotinib; first compound 0.002 µM) | relative viability (Bortezomib + Crizotinib; first compound 0.006325 µM) | relative viability (Bortezomib + Crizotinib; first compound 0.02 µM) | relative viability ([1]; first compound 0.08 µM) | relative viability ([1]; first compound 0.253 µM) | relative viability ([1]; first compound 0.8 µM) | relative viability ([1]; first compound 2.53 µM) | relative viability ([1]; first compound 8 µM) | relative viability (Obatoclax + Pictilisib; first compound 0.01 µM) | relative viability (Obatoclax + Pictilisib; first compound 0.03162 µM) | relative viability (Obatoclax + Pictilisib; first compound 0.1 µM) | relative viability (Obatoclax + Pictilisib; first compound 0.3162 µM) | relative viability (Obatoclax + Pictilisib; first compound 1 µM)
HCC-827 | 0.837 | 0.747 | 0.859 | 0.236 | 0.103 | 0.915 | 0.837 | 0.783 | 0.251 | 0.116 | 1.08 | 1.02 | 0.993 | 0.581 | 0.239 | 1.04 | 0.948 | 0.953 | 0.916 | 1.04
NCI-H322M | 0.524 | – | 0.519 | 0.288 | 0.27 | 0.977 | – | 0.99 | 0.985 | 0.36 | 0.947 | 1.03 | 0.934 | 0.363 | 0.239 | 0.545 | 0.484 | 0.665 | 0.467 | 0.5
NCI-H1666 | 0.802 | 0.869 | 0.945 | 0.43 | 0.324 | 0.941 | 1.11 | 0.9 | 0.202 | 0.228 | 1.02 | 0.948 | 1 | 0.739 | 0.33 | 0.398 | 0.531 | 0.479 | 0.188 | 0.196
NCI-H1563 | 0.795 | 0.751 | 0.653 | 0.519 | 0.485 | 0.894 | 0.902 | 0.732 | 0.522 | 0.443 | 0.903 | 0.923 | 0.87 | 0.746 | 0.565 | 0.615 | 0.639 | 0.644 | 0.655 | 0.634
NCI-H1437 | 0.86 | 0.825 | 0.871 | 0.138 | 0.132 | 0.966 | 0.894 | 0.92 | 0.0811 | 0.0914 | 1.19 | 1.31 | 1.3 | 1.25 | 0.474 | 0.374 | 0.436 | 0.495 | 0.452 | 0.378
NCI-H1944 | 0.383 | 0.383 | 0.449 | 0.347 | 0.239 | 1.06 | 1.04 | 0.899 | 1.21 | 0.142 | 0.916 | 0.949 | 0.853 | 0.535 | 0.216 | 0.34 | 0.332 | 0.337 | 0.295 | 0.336
SK-MES-1 | 0.64 | 0.591 | 0.47 | 0.14 | 0.128 | 0.967 | 0.994 | 0.935 | 0.261 | 0.161 | 0.896 | 0.858 | 0.864 | 0.653 | 0.352 | 0.393 | 0.379 | 0.392 | 0.402 | 0.268
NCI-H1355 | 0.386 | 0.356 | 0.44 | 0.22 | 0.163 | 1.02 | 1.06 | 0.788 | 0.275 | 0.139 | 0.879 | 1.05 | 0.985 | 0.743 | 0.18 | 0.405 | 0.412 | 0.406 | 0.384 | 0.327
SK-LU-1 | 0.336 | 0.286 | 0.319 | 0.125 | 0.122 | 0.793 | 0.912 | 0.626 | 0.173 | 0.136 | 0.756 | 0.821 | 0.671 | 0.177 | 0.0847 | 0.616 | 0.559 | 0.46 | 0.364 | 0.256
NCI-H2228 | 0.51 | 0.674 | 0.294 | 0.0867 | 0.115 | 0.521 | 0.482 | 0.376 | 0.166 | 0.163 | 0.692 | 0.953 | 0.618 | 0.102 | 0.0419 | 0.278 | 0.419 | 0.384 | 0.294 | 0.174
NCI-H2347 | 0.559 | 0.367 | 0.291 | 0.182 | 0.194 | 0.657 | 0.582 | 0.348 | 0.291 | 0.298 | 0.554 | 1.44 | 1.21 | 0.857 | 0.325 | 0.904 | 0.648 | 0.695 | 0.489 | 0.831
A-427 | 0.346 | 0.327 | 0.503 | 0.182 | 0.132 | 0.867 | 0.859 | 0.866 | 0.521 | 0.0943 | 0.993 | 1.06 | 0.993 | 0.586 | 0.142 | 0.727 | 0.698 | 0.593 | 0.719 | 0.615
HCC-366 | 0.821 | 0.539 | 1.1 | 0.742 | 0.047 | 0.522 | 0.682 | 0.598 | 0.275 | 0.0107 | 0.942 | 1.04 | 0.472 | 0.0589 | 0.0265 | 0.136 | 0.151 | 0.172 | 0.159 | 0.12
HCC-78 | 0.36 | 0.352 | 0.372 | 0.385 | 0.263 | 0.365 | 0.328 | 0.299 | 0.148 | 0.174 | 0.582 | 0.666 | 0.54 | 0.492 | 0.233 | 0.179 | 0.207 | – | 0.158 | 0.2
PC-14 | – | 0.765 | 0.714 | 0.033 | 0.0438 | 0.935 | 0.935 | 0.947 | 0.359 | 0.0821 | 0.974 | 1.09 | 0.534 | 0.869 | 0.398 | 0.712 | 0.622 | 0.681 | 0.716 | 0.324
NCI-H2087 | 0.667 | 0.401 | 0.224 | 0.0576 | 0.0622 | 0.912 | 0.911 | 0.74 | 0.0857 | 0.072 | 1.05 | 1.14 | 1.02 | 0.336 | 0.111 | 0.908 | 0.925 | 0.825 | 0.334 | 0.206
HOP-62 | 0.981 | 0.914 | 0.691 | 0.149 | 0.0803 | – | 1.01 | 0.35 | 0.235 | 0.048 | 1.14 | 1.13 | 1.04 | 0.739 | 0.195 | 0.649 | 0.803 | 0.449 | 0.761 | 0.757
EKVX | 0.725 | 0.672 | 0.79 | 0.605 | 0.109 | 0.942 | 0.894 | 0.822 | 0.268 | 0.106 | 0.761 | 0.786 | 1.14 | 0.504 | 0.213 | 0.426 | 0.427 | 0.507 | 0.41 | 0.355
EMC-BAC-2 | 0.359 | 0.296 | 0.321 | 0.206 | 0.181 | 0.71 | 0.692 | 0.766 | 0.199 | 0.113 | 0.957 | 1.04 | 0.936 | 0.534 | 0.234 | 0.539 | 0.559 | 0.521 | 0.522 | 0.51
HARA | 0.439 | 0.322 | 0.616 | 0.0379 | 0.0617 | 0.961 | 0.966 | 0.789 | 0.0536 | 0.067 | 0.932 | 0.909 | 0.794 | 0.098 | 0.0593 | 0.449 | 0.445 | 0.426 | 0.379 | 0.352
LU99A | 0.328 | 0.294 | 0.318 | 0.296 | 0.197 | 0.592 | – | 0.561 | 0.274 | 0.153 | 0.8 | 0.732 | 0.735 | 0.363 | 0.156 | 0.337 | 0.298 | 0.364 | 0.263 | 0.2
LK-2 | 0.223 | 0.174 | 0.175 | 0.175 | 0.177 | – | 0.243 | 0.277 | 0.207 | 0.222 | 1.35 | 1.02 | 1 | 0.382 | 0.153 | 0.566 | 0.639 | 0.655 | 0.502 | 0.581
NCI-H441 | 0.648 | 0.38 | 0.233 | 0.154 | 0.188 | 0.584 | 0.716 | 0.29 | 0.135 | 0.129 | 1.16 | 0.649 | 1.18 | 0.384 | 0.177 | 0.442 | 0.451 | 0.412 | 0.338 | 0.348
NCI-H23 | 0.579 | 0.335 | 0.542 | 0.282 | 0.138 | – | 0.491 | 0.417 | 0.128 | 0.0919 | 0.699 | 0.987 | 0.712 | 0.256 | 0.147 | 0.43 | 0.442 | 0.57 | 0.4 | 0.197
NCI-H647 | 0.574 | 0.437 | 0.483 | 0.0304 | 0.0382 | 0.993 | 0.954 | 0.627 | 0.0302 | 0.0195 | 1.14 | 1.23 | 1.27 | 0.8 | 0.104 | 0.469 | 0.393 | 0.118 | 0.33 | 0.153
201T | 0.694 | 0.75 | 0.753 | 0.551 | 0.138 | 0.999 | 1.07 | 1.02 | 1.02 | 0.32 | 1.13 | 1.32 | 1.04 | 1.02 | 0.206 | 0.679 | 0.648 | 0.741 | 0.678 | 0.687
NCI-H1734 | 0.635 | 0.452 | 0.541 | 0.164 | 0.133 | 0.737 | 0.71 | 0.491 | 0.106 | 0.0952 | 0.816 | 0.828 | 0.815 | 0.447 | 0.161 | 0.466 | 0.457 | – | 0.361 | 0.229
NCI-H596 | 0.804 | 0.619 | 0.766 | 0.21 | 0.195 | 0.98 | 0.957 | 1.02 | 0.224 | 0.182 | 0.78 | 0.937 | 0.633 | 0.654 | 0.165 | 0.416 | 0.357 | 0.365 | 0.359 | 0.296

Reference: the supplement of paper PMC10307832
